How the values were obtained:
AR-VP16 [1] = molecular target: T1, AR-VP16 (Homo sapiens, UniProt P10275); assay: AR-VP16 DNA Binding Assay, antagonist mode (HepG2 cells, 0.1 nM R1881); format: cell-based
T1 sequence (P10275 560-920 limits assumed): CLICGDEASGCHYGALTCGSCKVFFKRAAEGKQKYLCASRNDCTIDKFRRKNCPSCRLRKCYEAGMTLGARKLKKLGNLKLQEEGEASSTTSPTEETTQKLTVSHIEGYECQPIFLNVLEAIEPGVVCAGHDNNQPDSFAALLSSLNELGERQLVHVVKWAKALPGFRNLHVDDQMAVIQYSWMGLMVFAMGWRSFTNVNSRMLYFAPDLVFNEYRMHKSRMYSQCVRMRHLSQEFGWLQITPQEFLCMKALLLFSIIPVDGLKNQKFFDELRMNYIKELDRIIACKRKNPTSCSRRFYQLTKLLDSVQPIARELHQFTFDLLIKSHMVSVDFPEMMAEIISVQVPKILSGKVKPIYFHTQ
Summary of the method: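 Transfected HepG2 cells expressing AR-VP16 received serially diluted compound in charcoal-stripped-serum RPMI the day after transfection, with 0.1 nM R1881 (final) added only for antagonist testing. After 48 h, cells were lysed for measurement.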

AR-VP16 [2] = molecular target: T1, AR-VP16; assay: AR-VP16 DNA Binding Assay, agonist mode (HepG2 cells); format: cell-based; settings: Emax >20x DMSO control = agonist

Compound	IC50 (AR-VP16 [1]) [nM]	ARVP16 DNA Binding Assay (Agonist mode): Agonist? (AR-VP16 [2])
N#Cc1ncc(N2C(=O)C3(CCC3)N(c3ccc(OCc4ccccc4)c(F)c3)C2=S)cc1C(F)(F)F [Compound 128, 5-(5-(4-(Benzyloxy)-3-fluorophenyl)-8-oxo-6-thioxo-5,7-diazaspiro[3.4]octan-7-yl)-3-(trifluoromethyl)picolinonitrile]	< 1000	No (Agonist defined as a compound whose Emax in the ARVP16 DNA Binding Assay (Agonist mode) is >20x DMSO control)
N#Cc1ncc(N2C(=O)C3(CCC3)N(c3ccc(OCCN4CCOCC4)c(F)c3)C2=S)cc1C(F)(F)F [Compound 143, 5-(5-(3-Fluoro-4-(2-morpholinoethoxy)phenyl)-8-oxo-6-thioxo-5,7-diazaspiro[3.4]octan-7-yl)-3-(trifluoromethyl)picolinonitrile]	< 1000	Yes (Agonist defined as a compound whose Emax in the ARVP16 DNA Binding Assay (Agonist mode) is >20x DMSO control)
N#Cc1ncc(N2C(=O)C3(CCC3)N(c3ccc(F)c(C(=O)NCCc4ccncc4)c3)C2=S)cc1C(F)(F)F [Compound 241, 5-(7-(6-Cyano-5-(trifluoromethyl)pyridin-3-yl)-8-oxo-6-thioxo-5,7-diazaspiro[3.4]octan-5-yl)-2-fluoro-N-(2-(pyridin-4-yl)ethyl)benzamide]	> 1000	No (Agonist defined as a compound whose Emax in the ARVP16 DNA Binding Assay (Agonist mode) is >20x DMSO control)
N#Cc1ncc(N2C(=O)C3(CCC3)N(c3ccc(S(N)(=O)=O)cc3)C2=S)cc1C(F)(F)F [Compound 81, 4-(7-(6-cyano-5-(trifluoromethyl)pyridin-3-yl)-8-oxo-6-thioxo-5,7-diazaspiro-[3.4]octan-5-yl)benzenesulfonamide]	> 1000	No (Agonist defined as a compound whose Emax in the ARVP16 DNA Binding Assay (Agonist mode) is >20x DMSO control)
N#Cc1ncc(N2C(=O)C3(CCC3)N(c3ccc(OCCCN4CCOCC4)c(F)c3)C2=S)cc1C(F)(F)F [Compound 150, 5-(5-(3-Fluoro-4-(3-morpholinopropoxy)phenyl)-8-oxo-6-thioxo-5,7-diazaspiro[3.4]octan-7-yl)-3-(trifluoromethyl)picolinonitrile]	< 1000	Yes (Agonist defined as a compound whose Emax in the ARVP16 DNA Binding Assay (Agonist mode) is >20x DMSO control)
Cc1cc(N2C(=O)C3(CCC3)N(c3ccc(OCCN4CCN(C)CC4)c(F)c3)C2=S)cnc1C#N [Compound 170, 5-(5-(3-Fluoro-4-(2-(4-methylpiperazin-1-yl)ethoxy)phenyl)-8-oxo-6-thioxo-5,7-diazaspiro[3.4]octan-7-yl)-3-methylpicolinonitrile]	< 1000	Yes (Agonist defined as a compound whose Emax in the ARVP16 DNA Binding Assay (Agonist mode) is >20x DMSO control)
N#Cc1ncc(N2C(=O)C3(CCC3)N(c3cccc(F)c3F)C2=S)cc1C(F)(F)F [Compound 72, 5-(5-(2,3-Difluorophenyl)-8-oxo-6-thioxo-5,7-diazaspiro[3.4]octan-7-yl)-3-(trifluoromethyl)picolinonitrile]	< 1000	Yes (Agonist defined as a compound whose Emax in the ARVP16 DNA Binding Assay (Agonist mode) is >20x DMSO control)
Cc1cc(N2C(=O)C3(CCC3)N(c3ccc(C(=O)NCCCN4CCCC4)c(F)c3)C2=S)cnc1C#N [Compound 275, 4-(7-(6-Cyano-5-methylpyridin-3-yl)-8-oxo-6-thioxo-5,7-diazaspiro[3.4]octan-5-yl)-2-fluoro-N-(3-(pyrrolidin-1-yl)propyl)benzamide]	> 1000	No (Agonist defined as a compound whose Emax in the ARVP16 DNA Binding Assay (Agonist mode) is >20x DMSO control)
N#Cc1ncc(N2C(=O)C3(CCC3)N(c3ccccc3CO)C2=S)cc1C(F)(F)F [Compound 68, 5-(5-(2-(Hydroxymethyl)phenyl)-8-oxo-6-thioxo-5,7-diazaspiro[3.4]octan-7-yl)-3-(trifluoromethyl)picolinonitrile]	> 1000	No (Agonist defined as a compound whose Emax in the ARVP16 DNA Binding Assay (Agonist mode) is >20x DMSO control)
N#Cc1ncc(N2C(=O)C3(CCC3)N(c3ccc(F)c(OCc4ccccc4)c3)C2=S)cc1C(F)(F)F [Compound 161, 5-(5-(3-(Benzyloxy)-4-fluorophenyl)-8-oxo-6-thioxo-5,7-diazaspiro[3.4]octan-7-yl)-3-(trifluoromethyl)picolinonitrile]	> 1000	No (Agonist defined as a compound whose Emax in the ARVP16 DNA Binding Assay (Agonist mode) is >20x DMSO control)
N#Cc1ncc(N2C(=O)C3(CCC3)N(c3ccc(F)c(C(=O)NCCCN4CCCC4)c3)C2=S)cc1C(F)(F)F [Compound 252, 5-(7-(6-Cyano-5-(trifluoromethyl)pyridin-3-yl)-8-oxo-6-thioxo-5,7-diazaspiro[3.4]octan-5-yl)-2-fluoro-N-(3-(pyrrolidin-1-yl)propyl)benzamide]	< 1000	No (Agonist defined as a compound whose Emax in the ARVP16 DNA Binding Assay (Agonist mode) is >20x DMSO control)
N#Cc1ncc(N2C(=O)C3(CCC3)N(c3ccc(OCCc4cccc5ccccc45)c(F)c3)C2=S)cc1C(F)(F)F [Compound 140, 5-(5-(3-Fluoro-4-(2-(naphthalen-1-yl)ethoxy)phenyl)-8-oxo-6-thioxo-5,7-diazaspiro[3.4]octan-7-yl)-3-(trifluoromethyl)picolinonitrile]	> 1000	No (Agonist defined as a compound whose Emax in the ARVP16 DNA Binding Assay (Agonist mode) is >20x DMSO control)
Cc1cc(N2C(=O)C3(CCC3)N(c3ccc(OCCc4ccccn4)c(F)c3)C2=S)cnc1C#N [Compound 169, 5-(5-(3-Fluoro-4-(2-(pyridin-2-yl)ethoxy)phenyl)-8-oxo-6-thioxo-5,7-diazaspiro[3.4]octan-7-yl)-3-methylpicolinonitrile]	< 1000	No (Agonist defined as a compound whose Emax in the ARVP16 DNA Binding Assay (Agonist mode) is >20x DMSO control)
Cc1cc(N2C(=O)C3(CCC3)N(c3ccc(O)c(F)c3)C2=S)cnc1C#N [Compound 54, 5-(5-(3-Fluoro-4-hydroxyphenyl)-8-oxo-6-thioxo-5,7-diazaspiro[3.4]octan-7-yl)-3-methylpicolinonitrile]	> 1000	No (Agonist defined as a compound whose Emax in the ARVP16 DNA Binding Assay (Agonist mode) is >20x DMSO control)
N#Cc1ncc(N2C(=O)C3(CCC3)N(c3ccccc3F)C2=S)cc1C(F)(F)F [Compound 26, 5-(5-(2-Fluorophenyl)-8-oxo-6-thioxo-5,7-diazaspiro[3.4]octan-7-yl)-3-(trifluoromethyl)picolinonitrile]	< 1000	Yes (Agonist defined as a compound whose Emax in the ARVP16 DNA Binding Assay (Agonist mode) is >20x DMSO control)
N#Cc1ncc(N2C(=O)C3(CCC3)N(c3ccc(F)c(OCCc4ccccc4)c3)C2=S)cc1C(F)(F)F [Compound 162, 5-(5-(4-Fluoro-3-phenethoxyphenyl)-8-oxo-6-thioxo-5,7-diazaspiro[3.4]octan-7-yl)-3-(trifluoromethyl)picolinonitrile]	> 1000	No (Agonist defined as a compound whose Emax in the ARVP16 DNA Binding Assay (Agonist mode) is >20x DMSO control)
N#Cc1ncc(N2C(=O)C3(CCC3)N(c3ccc(F)cc3)C2=S)cc1C(F)(F)F [Compound 28, 5-(5-(4-Fluorophenyl)-8-oxo-6-thioxo-5,7-diazaspiro[3.4]octan-7-yl)-3-(trifluoromethyl)picolinonitrile]	< 1000	No (Agonist defined as a compound whose Emax in the ARVP16 DNA Binding Assay (Agonist mode) is >20x DMSO control)
N#Cc1ncc(N2C(=O)C3(CCC3)N(c3ccc(OCCCCSCCCC(F)(F)C(F)(F)F)c(F)c3)C2=S)cc1C(F)(F)F [Compound 151, 5-(5-(3-Fluoro-4-(4-((4,4,5,5,5-pentafluoropentyl)thio)butoxy)phenyl)-8-oxo-6-thioxo-5,7-diazaspiro[3.4]octan-7-yl)-3-(trifluoromethyl)picolinonitrile]	> 1000	No (Agonist defined as a compound whose Emax in the ARVP16 DNA Binding Assay (Agonist mode) is >20x DMSO control)
N#Cc1ncc(N2C(=O)C3(CCC3)N(c3ccc(-c4ccccn4)cc3)C2=S)cc1C(F)(F)F [Compound 16, 5-(8-Oxo-5-(4-(pyridin-2-yl)phenyl)-6-thioxo-5,7-diazaspiro[3.4]octan-7-yl)-3-(trifluoromethyl)picolinonitrile]	< 1000	No (Agonist defined as a compound whose Emax in the ARVP16 DNA Binding Assay (Agonist mode) is >20x DMSO control)
N#Cc1ncc(N2C(=O)C3(CCC3)N(c3ccc(CCCC(=O)O)cc3)C2=S)cc1C(F)(F)F [Compound 227, 4-(4-(7-(6-cyano-5-(trifluoromethyl)pyridin-3-yl)-8-oxo-6-thioxo-5,7-diazaspiro[3.4]octan-5-yl)phenyl)butanoic acid]	> 1000	No (Agonist defined as a compound whose Emax in the ARVP16 DNA Binding Assay (Agonist mode) is >20x DMSO control)
